Measured values: the supplement of paper PMC10307832

Legend:
Test in all cases: relative viability (nuclei count vs DMSO), 5 days (fraction); higher = more cells survive
MLN4924 + Crizotinib = compound: NS(=O)(=O)OC[C@@H]1C[C@@H](n2ccc3c(N[C@H]4CCc5ccccc54)ncnc32)C[C@@H]1O [MLN4924] + C[C@@H](Oc1cc(-c2cnn(C3CCNCC3)c2)cnc1N)c1c(Cl)ccc(F)c1Cl [Crizotinib] (partner 1 µM)
How it was run: (§1)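 After 5 days of treatment, lung cancer cells in 1536-well plates were fixed and stained in a single step (final 0.05% Triton X-100, 1% formaldehyde, 1 ug/ml Hoechst) and their nuclei counted on 4× images. Treatment had been applied by pin tool the day after seeding as one drug alone or as a fixed anchor-drug dose with five library-drug doses (not always all listed) in √10 steps. Relative viability is the nuclei count of treated wells divided by that of vehicle wells, and values are medians of duplicate plates.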

GSK126 + Olaparib = compound: CC[C@H](C)N1C=C(C2=C(C=C(C=C21)C3=CN=C(C=C3)N4CCNCC4)C(=O)NCC5=C(C=C(NC5=O)C)C)C [GSK126] + O=C(c1cc(Cc2n[nH]c(=O)c3ccccc23)ccc1F)N1CCN(C(=O)C2CC2)CC1 [Olaparib] (partner 8 µM)
How it was run: as §1

MLN4924 + Linsitinib = compound: NS(=O)(=O)OC[C@@H]1C[C@@H](n2ccc3c(N[C@H]4CCc5ccccc54)ncnc32)C[C@@H]1O [MLN4924] + C[C@]1(O)C[C@@H](c2nc(-c3ccc4ccc(-c5ccccc5)nc4c3)c3c(N)nccn32)C1 [Linsitinib] (partner 1 µM)
How it was run: as §1

Carboplatin + Decitabine = compound: C1CC(C1)(C(=O)O)C(=O)O.[NH2-].[NH2-].[Pt+2] [Carboplatin] + Nc1ncn([C@H]2C[C@H](O)[C@@H](CO)O2)c(=O)n1 [Decitabine] (partner 2 µM)
How it was run: as §1

Cell Line	relative viability (MLN4924 + Crizotinib; first compound 0.04 µM)	relative viability (MLN4924 + Crizotinib; first compound 0.1265 µM)	relative viability (MLN4924 + Crizotinib; first compound 0.4 µM)	relative viability (MLN4924 + Crizotinib; first compound 1.265 µM)	relative viability (MLN4924 + Crizotinib; first compound 4 µM)	relative viability (GSK126 + Olaparib; first compound 0.08 µM)	relative viability (GSK126 + Olaparib; first compound 0.253 µM)	relative viability (GSK126 + Olaparib; first compound 0.8 µM)	relative viability (GSK126 + Olaparib; first compound 2.53 µM)	relative viability (GSK126 + Olaparib; first compound 8 µM)	relative viability (MLN4924 + Linsitinib; first compound 0.04 µM)	relative viability (MLN4924 + Linsitinib; first compound 0.1265 µM)	relative viability (MLN4924 + Linsitinib; first compound 0.4 µM)	relative viability (MLN4924 + Linsitinib; first compound 1.265 µM)	relative viability (MLN4924 + Linsitinib; first compound 4 µM)	relative viability (Carboplatin + Decitabine; first compound 0.08 µM)	relative viability (Carboplatin + Decitabine; first compound 0.253 µM)	relative viability (Carboplatin + Decitabine; first compound 0.8 µM)	relative viability (Carboplatin + Decitabine; first compound 2.53 µM)	relative viability (Carboplatin + Decitabine; first compound 8 µM)
NCI-H1792	0.961	0.906	0.834	0.69	0.346	0.471	0.351	0.507	0.374	0.551	0.548	0.664	0.804	0.184	0.124	0.475	0.562	0.497	0.372	0.291
NCI-H1915	0.862	0.751	0.844	0.19	0.15	0.271	0.277	0.25	0.266	0.269	1.05	0.82	0.898	0.213	0.222	0.264	0.258	0.249	0.23	0.258
NCI-H1944	1.06	0.842	0.649	0.179	0.167	0.431	0.376	0.402	0.408	0.387	1.38	1.19	1.02	0.257	0.37	0.456	0.456	0.437	0.417	0.363
NCI-H1975	0.876	1.11	1.17	0.484	0.22	0.785	0.789	0.721	0.809	0.762	0.991	1.17	0.825	0.234	0.226	0.416	0.399	0.402	0.43	0.367
NCI-H1993	1.02	0.678	0.626	0.447	0.622	1.21	1.02	1	1.06	0.893	0.937	0.719	0.68	0.632	0.584	0.64	0.661	0.559	0.559	0.473
NCI-H2009	0.859	0.544	0.242	0.0917	0.0613	0.755	0.653	0.714	0.588	0.713	0.816	0.36	0.247	0.143	0.0806	0.352	0.379	0.345	0.364	0.357
NCI-H2023	0.579	0.918	0.298	0.0965	0.0683	0.489	0.496	0.446	0.467	0.382	0.661	0.36	0.112	0.0836	0.0754	0.238	0.224	0.185	0.141	0.129
NCI-H2085	0.702	0.83	0.662	0.676	0.35	0.77	0.784	0.764	0.771	0.762	0.868	0.839	0.577	0.313	0.235	0.548	0.57	0.506	0.544	0.474
